Measurements reported in PubChem BioAssay (NCI).
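Values below derive from 48-hour exposures of cells grown in 96-well plates, with endpoints linearly interpolated between the two concentrations bracketing the appropriate inhibition level. TGI denotes the concentration required for complete inhibition of growth.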

Assays:
Assay in all cases: growth of human tumour cells (NCI), 48 h
786-0 renal = test system: 786-0 renal
A549 NSCLC = test system: A549 NSCLC
BT-549 breast = test system: BT-549 breast
CAKI-1 renal = test system: CAKI-1 renal
CCRF-CEM leukemia = test system: CCRF-CEM leukemia
COLO 205 colon = test system: COLO 205 colon
DU-145 prostate = test system: DU-145 prostate
EKVX NSCLC = test system: EKVX NSCLC
HCT-116 colon = test system: HCT-116 colon
HCT-15 colon = test system: HCT-15 colon
HL-60(TB) leukemia = test system: HL-60(TB) leukemia
HOP-62 NSCLC = test system: HOP-62 NSCLC
HOP-92 NSCLC = test system: HOP-92 NSCLC
HS 578T breast = test system: HS 578T breast
HT29 colon = test system: HT29 colon
IGROV1 ovarian = test system: IGROV1 ovarian
K-562 leukemia = test system: K-562 leukemia
KM12 colon = test system: KM12 colon
LOX IMVI melanoma = test system: LOX IMVI melanoma
M14 melanoma = test system: M14 melanoma
MALME-3M melanoma = test system: MALME-3M melanoma
MCF7 breast = test system: MCF7 breast
MDA-MB-231 breast = test system: MDA-MB-231 breast
MDA-MB-435 = test system: MDA-MB-435
MDA-N = test system: MDA-N
MOLT-4 leukemia = test system: MOLT-4 leukemia
NCI-H226 lung = test system: NCI-H226 lung
NCI-H23 lung = test system: NCI-H23 lung
NCI-H522 lung = test system: NCI-H522 lung
NCI/ADR-RES ovarian = test system: NCI/ADR-RES ovarian
OVCAR-3 ovarian = test system: OVCAR-3 ovarian
OVCAR-4 ovarian = test system: OVCAR-4 ovarian
OVCAR-5 ovarian = test system: OVCAR-5 ovarian
OVCAR-8 ovarian = test system: OVCAR-8 ovarian
PC-3 prostate = test system: PC-3 prostate
RPMI-8226 leukemia = test system: RPMI-8226 leukemia
RXF 393 renal = test system: RXF 393 renal
SF-268 CNS = test system: SF-268 CNS
SF-295 CNS = test system: SF-295 CNS
SF-539 CNS = test system: SF-539 CNS
SK-MEL-2 melanoma = test system: SK-MEL-2 melanoma
SK-MEL-28 melanoma = test system: SK-MEL-28 melanoma
SK-MEL-5 melanoma = test system: SK-MEL-5 melanoma
SK-OV-3 ovarian = test system: SK-OV-3 ovarian
SN12C renal = test system: SN12C renal
SNB-19 CNS = test system: SNB-19 CNS
SNB-75 CNS = test system: SNB-75 CNS
SW-620 colon = test system: SW-620 colon
TK-10 renal = test system: TK-10 renal
U251 CNS = test system: U251 CNS
UACC-257 melanoma = test system: UACC-257 melanoma
UACC-62 melanoma = test system: UACC-62 melanoma
UO-31 renal = test system: UO-31 renal
A498 renal = test system: A498 renal
ACHN renal = test system: ACHN renal
HCC-2998 colon = test system: HCC-2998 colon
NCI-H460 lung = test system: NCI-H460 lung
T-47D breast = test system: T-47D breast

Measured: TGI

NC(=S)Nc1c(S(N)(=O)=O)cc(S(N)(=O)=O)c(Cl)c1Cl
> 100 µM: 786-0 renal | A549 NSCLC | BT-549 breast | CAKI-1 renal | CCRF-CEM leukemia | COLO 205 colon | DU-145 prostate | EKVX NSCLC | HCT-116 colon | HCT-15 colon | HL-60(TB) leukemia | HOP-62 NSCLC | HOP-92 NSCLC | HS 578T breast | HT29 colon | IGROV1 ovarian | K-562 leukemia | KM12 colon | LOX IMVI melanoma | M14 melanoma | MALME-3M melanoma | MCF7 breast | MDA-MB-231 breast | MDA-MB-435 | MDA-N | MOLT-4 leukemia | NCI-H226 lung | NCI-H23 lung | NCI-H522 lung | NCI/ADR-RES ovarian | OVCAR-3 ovarian | OVCAR-4 ovarian | OVCAR-5 ovarian | OVCAR-8 ovarian | PC-3 prostate | RPMI-8226 leukemia | RXF 393 renal | SF-268 CNS | SF-295 CNS | SF-539 CNS | SK-MEL-2 melanoma | SK-MEL-28 melanoma | SK-MEL-5 melanoma | SK-OV-3 ovarian | SN12C renal | SNB-19 CNS | SNB-75 CNS | SW-620 colon | TK-10 renal | U251 CNS | UACC-257 melanoma | UACC-62 melanoma | UO-31 renal

CCCCCCCCOP(=O)(O)OP(=O)(O)OCC1OC(n2ccc(N)nc2=O)C(O)C1O (centres undefined)
> 100 µM: 786-0 renal | A498 renal | A549 NSCLC | ACHN renal | BT-549 breast | CAKI-1 renal | CCRF-CEM leukemia | COLO 205 colon | EKVX NSCLC | HCC-2998 colon | HCT-116 colon | HCT-15 colon | HL-60(TB) leukemia | HOP-62 NSCLC | HOP-92 NSCLC | HS 578T breast | HT29 colon | IGROV1 ovarian | K-562 leukemia | KM12 colon | LOX IMVI melanoma | M14 melanoma | MALME-3M melanoma | MCF7 breast | MDA-MB-231 breast | MDA-MB-435 | MDA-N | MOLT-4 leukemia | NCI-H226 lung | NCI-H23 lung | NCI-H460 lung | NCI/ADR-RES ovarian | OVCAR-3 ovarian | OVCAR-4 ovarian | OVCAR-5 ovarian | OVCAR-8 ovarian | PC-3 prostate | RPMI-8226 leukemia | RXF 393 renal | SF-268 CNS | SF-295 CNS | SF-539 CNS | SK-MEL-2 melanoma | SK-MEL-28 melanoma | SK-MEL-5 melanoma | SK-OV-3 ovarian | SN12C renal | SNB-19 CNS | SNB-75 CNS | SW-620 colon | T-47D breast | TK-10 renal | U251 CNS | UACC-257 melanoma | UACC-62 melanoma | UO-31 renal
